# Reference: patent publication US12435087B2, “Modulators of DCN-1 and methods of use thereof” (Cellarity, Inc., priority 2023, dated 2025)
# Like-named read-outs stand apart in the source and are kept apart here.
# Experiments:
# [1] = target: DCN1 (DCUND1) protein PONY domain (Homo sapiens (Human), UniProt Q96GG9); experiment: TR-FRET assay (binding to DCN-1, displacement of FAM-labeled probe)
# Method in brief: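 Compounds read at 1, 5 and 24 h, 0.1% final DMSO, by TR-FRET between terbium-streptavidin on biotinylated DCN1 PONY domain (E. coli) and a FAM-tagged non-covalent inhibitor probe. Two setups used, 5 nM protein with 20 nM labelled probe, or 0.31 nM protein with 100 nM labelled plus 800 nM unlabelled probe; buffer had TritonX and 200 mM NaCl. % activity relative to high (with probe) and low (without probe) controls.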
# DCN1 protein = DCN1 protein (Homo sapiens (Human), UniProt Q96GG9); experiment: Intact protein MS analysis with the RapidFire-TOF system (covalent adduct formation); format: binding; conditions: 400 nM DCN1, incubated at room temperature for 3 hours
# Sequence of DCN1 protein (Q96GG9 whole entry): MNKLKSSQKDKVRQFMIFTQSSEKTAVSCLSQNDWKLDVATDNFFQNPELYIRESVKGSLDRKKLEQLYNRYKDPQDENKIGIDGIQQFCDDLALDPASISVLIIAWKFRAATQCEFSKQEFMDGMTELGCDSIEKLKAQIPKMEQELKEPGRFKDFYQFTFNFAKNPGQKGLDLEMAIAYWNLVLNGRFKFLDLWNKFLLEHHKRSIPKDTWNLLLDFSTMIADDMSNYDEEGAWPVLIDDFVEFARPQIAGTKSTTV
# Method in brief: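 Tag-free His-TEV-DCN1 expressed in E. coli at 400 nM in 25 mM Tris-HCl, 200 mM NaCl, 1 mM DTT, incubated with 11 compound concentrations at room temperature for 3 h unless otherwise specified. Quenched with 0.2% formic acid; intact-protein RapidFire Q-TOF MS, deconvoluted to detect parent and compound-adduct masses.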
# [2] = 24 hr after treatment with compound, read-out: TR FRET IC50 24 hr
# [3] = TR FRET IC50 1 hr (nM), 1 hr after treatment with compound
# [4] = read-out: TR FRET IC50 1 hr, 1 hr after treatment with compound
# Sequence of DCN1 (DCUND1) protein PONY domain (Q96GG9 60-248): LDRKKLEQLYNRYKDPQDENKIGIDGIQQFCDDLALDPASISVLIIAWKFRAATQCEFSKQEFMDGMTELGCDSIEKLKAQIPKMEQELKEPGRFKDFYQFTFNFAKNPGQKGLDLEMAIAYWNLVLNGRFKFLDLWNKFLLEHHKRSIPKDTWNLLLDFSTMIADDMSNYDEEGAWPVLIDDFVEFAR
SMILES,"IC50 [1, 2] [nM]","IC50 [1, 3] [nM]",Emax (DCN1 protein) [%],"IC50 [1, 4] [nM]"
"CCN1C(=O)[C@H](NC(=O)c2cccc(C(F)(F)F)c2)[C@@H](c2cccc(NC(=O)/C(C#N)=C/C3CC3)c2)c2c(C)nn(-c3ccccc3)c21 (racemic) [Compound I-68, rac-N-((4R,5S)-4-(3-((E)-2-cyano-3-cyclopropylacrylamido)phenyl)-7-ethyl-3-methyl-6-oxo-1-phenyl-4,5,6,7-tetrahydro-1H-pyrazolo[3,4-b]pyridin-5-yl)-3-(trifluoromethyl)benzamide]",200 to 1000,≤ 200,80 to 100,–
C=C(C(=O)NCc1cccc([C@@H]2c3cnn(-c4ccccc4)c3N(CC)C(=O)[C@H]2NC(=O)c2nccc(C(F)(F)F)n2)c1)C(C)N(C)C1COC1 (stereo partly drawn) [Compound I-217],≤ 200,–,80 to 100,≤ 200
C=C(CN(C)C)C(=O)Nc1cccc([C@H]2c3c(C)nn(-c4ccccc4)c3N(CC)C(=O)[C@@H]2NC(=O)c2cccc(C(F)(F)F)c2)c1 (racemic) [Compound I-146],≤ 200,–,80 to 100,≤ 200
C/C=C/C(=O)Nc1cccc([C@H]2c3c(C)nn(-c4ccccc4)c3N(CC)C(=O)[C@H]2NC(=O)c2cccc(C(F)(F)F)c2)c1 (racemic) [Compound I-23],> 3000,> 3000,0 to 30,–
C=CC(=O)Nc1cccc([C@H]2c3c(C)nn(-c4ccccc4)c3N(CC)C(=O)[C@H]2NC(=O)c2cccc(C(F)(F)F)c2)c1 (racemic) [Compound I-25],> 3000,> 3000,0 to 30,–
"C=C(C(=O)NCc1cccc([C@@H]2c3cnn(-c4ccccc4)c3N(CC)C(=O)[C@H]2NC(=O)c2csc(C(F)(F)F)n2)c1)C(C)(C)N(C)C1COC1 [Compound I-231, N-((4R,5S)-7-ethyl-4-(3-((3-methyl-3-(methyl(oxetan-3-yl)amino)-2-methylenebutanamido)methyl)phenyl)-6-oxo-1-phenyl-4,5,6,7-tetrahydro-1H-pyrazolo[3,4-b]pyridin-5-yl)-2-(trifluoromethyl)thiazole-4-carboxamide]",≤ 200,–,80 to 100,≤ 200
CCN1C(=O)[C@@H](NC(=O)c2cccc(C(F)(F)F)c2)[C@@H](c2cccc(NC(=O)[C@H](C)Cl)c2)c2c(C)nn(-c3ccccc3)c21 (mixture of isomers) [Compound I-16],> 3000,–,0 to 30,> 3000
CCN1C(=O)[C@@H](NC(=O)c2cccc(C(F)(F)F)c2)[C@@H](c2cccc(NC(=O)C3=CCCC3)c2)c2c(C)nn(-c3ccccc3)c21 (racemic) [Compound I-24],> 3000,> 3000,0 to 30,–
"C=C(C(=O)NCc1cccc([C@@H]2c3cnn(-c4ccccc4)c3N(CC)C(=O)[C@H]2NC(=O)c2nccc(C(F)(F)F)n2)c1)C(C)N1CC2(COC2)C1 (stereo partly drawn) [Compound I-221, N-((4R,5S)-7-ethyl-4-(3-((2-methylene-3-(2-oxa-6-azaspiro[3.3]heptan-6-yl)butanamido)methyl)phenyl)-6-oxo-1-phenyl-4,5,6,7-tetrahydro-1H-pyrazolo[3,4-b]pyridin-5-yl)-4-(trifluoromethyl)pyrimidine-2-carboxamide]",≤ 200,–,80 to 100,≤ 200
CCN1C(=O)[C@H](NC(=O)c2cccc(C(F)(F)F)c2)[C@@H](c2cccc(NC(=O)/C=C/CN3CCOCC3)c2)c2c(C)nn(-c3ccccc3)c21 (racemic) [Compound I-47],1000 to 3000,–,0 to 30,> 3000
C=C(CN1CCOCC1)C(=O)NCc1cccc([C@@H]2c3cnn(-c4ccccc4)c3N(CC)C(=O)[C@H]2NC(=O)c2cccc(C(F)(F)F)c2)c1 [Compound I-62],≤ 200,–,80 to 100,≤ 200
C/C=C(\CN1CCN(C2COC2)CC1)C(=O)NCc1cccc([C@@H]2c3cnn(-c4ccccc4)c3N(CC)C(=O)[C@H]2NC(=O)c2cccc(C(F)(F)F)c2)c1 [Compound I-222],≤ 200,200 to 1000,80 to 100,–
"C=C(CN1CCOCC1)C(=O)Nc1cccc([C@H]2c3c(C)nn(-c4ccccc4)c3N(CC)C(=O)[C@@H]2NC(=O)c2cccc(C(F)(F)F)c2)c1 (racemic) [Compound I-9, N-[rac-(4S,5R)-7-ethyl-3-methyl-4-[3-[2-(morpholinomethyl)prop-2-enoylamino]phenyl]-6-oxo-1-phenyl-4,5-dihydropyrazolo[3,4-b]pyridin-5-yl]-3-(trifluoromethyl)benzamide]",≤ 200,≤ 200,80 to 100,–
"CCN1C(=O)[C@H](NC(=O)c2cccc(C(F)(F)F)c2)[C@@H](c2cccc(N3CC=CC3=O)c2)c2c(C)nn(-c3ccccc3)c21 (racemic) [Compound I-28, rac-N-((4R,5S)-7-ethyl-3-methyl-6-oxo-4-(3-(2-oxo-2,5-dihydro-1H-pyrrol-1-yl)phenyl)-1-phenyl-4,5,6,7-tetrahydro-1H-pyrazolo[3,4-b]pyridin-5-yl)-3-(trifluoromethyl)benzamide]",1000 to 3000,1000 to 3000,80 to 100,–
C/C=C(\CN1CCN(C2COC2)CC1)C(=O)NCc1cccc([C@@H]2c3cnn(-c4ccccc4)c3N(CC)C(=O)[C@H]2NC(=O)c2nccc(C(F)(F)F)n2)c1 [Compound I-220],≤ 200,200 to 1000,80 to 100,–
C=C(CN1CC(F)(F)C1)C(=O)NCc1cccc([C@@H]2c3cnn(-c4ccccc4)c3N(CC)C(=O)[C@H]2NC(=O)c2cccc(C(F)(F)F)c2)c1 [Compound I-14],≤ 200,–,80 to 100,≤ 200
C=C(CN1CCOCC1)C(=O)Nc1ccccc1[C@H]1c2cnn(-c3ccccc3)c2N(CC)C(=O)[C@@H]1NC(=O)c1cccc(C(F)(F)F)c1 (racemic) [Compound I-15],≤ 200,–,80 to 100,≤ 200
CCN1C(=O)[C@@H](NC(=O)c2cccc(C(F)(F)F)c2)[C@@H](c2cccc(NC#N)c2)c2c(C)nn(-c3ccccc3)c21 (racemic) [Compound I-22],> 3000,> 3000,0 to 30,–
C=C(CN1CCOCC1)C(=O)NCc1cccc([C@@H]2c3cnn(-c4ccccc4)c3N(CC)C(=O)[C@H]2NC(=O)c2nccc(C(F)(F)F)n2)c1 [Compound I-82],≤ 200,–,80 to 100,≤ 200
C=C(CN1CC(F)(F)C1)C(=O)Nc1cccc([C@@H]2c3c(C)nn(-c4ccccc4)c3N(CC)C(=O)[C@H]2NC(=O)c2cccc(C(F)(F)F)c2)c1 (racemic) [Compound I-11],≤ 200,–,80 to 100,≤ 200
CCN1C(=O)[C@H](NC(=O)c2cccc(C(F)(F)F)c2)[C@@H](c2cccc(NC(=O)/C=C/C(=O)OC)c2)c2c(C)nn(-c3ccccc3)c21 (racemic) [Compound I-141],≤ 200,–,80 to 100,≤ 200
"CCN1C(=O)[C@H](NC(=O)c2cccc(C(F)(F)F)c2)[C@@H](c2cccc(NC(=O)/C(C#N)=C/C(C)C)c2)c2c(C)nn(-c3ccccc3)c21 (racemic) [Compound I-46, rac-N-((4R,5S)-4-(3-((E)-2-cyano-4-methylpent-2-enamido)phenyl)-7-ethyl-3-methyl-6-oxo-1-phenyl-4,5,6,7-tetrahydro-1H-pyrazolo[3,4-b]pyridin-5-yl)-3-(trifluoromethyl)benzamide]",≤ 200,≤ 200,80 to 100,–
C=C(C)C(=O)Nc1cccc([C@H]2c3c(C)nn(-c4ccccc4)c3N(CC)C(=O)[C@H]2NC(=O)c2cccc(C(F)(F)F)c2)c1 (racemic) [Compound I-17],> 3000,> 3000,0 to 30,–
CCN1C(=O)[C@H](NC(=O)c2cccc(C(F)(F)F)c2)[C@@H](c2ccccc2NC(=O)[C@H](C)Br)c2cnn(-c3ccccc3)c21 (mixture of isomers) [Compound I-72],200 to 1000,1000 to 3000,80 to 100,–
CCN1C(=O)[C@@H](NC(=O)c2cccc(C(F)(F)F)c2)[C@H](c2cccc(NC(=O)C3=C(C(=O)OC)CC3)c2)c2c(C)nn(-c3ccccc3)c21 [Compound I-34],≤ 200,–,80 to 100,≤ 200
"CCN1C(=O)[C@H](NC(=O)c2cccc(C(F)(F)F)c2)[C@@H](c2cccc(NC(=O)C#CCN(C)C)c2)c2c(C)nn(-c3ccccc3)c21 (racemic) [Compound I-133, rac-N-((4R,5S)-4-(3-(4-(dimethylamino)but-2-ynamido)phenyl)-7-ethyl-3-methyl-6-oxo-1-phenyl-4,5,6,7-tetrahydro-1H-pyrazolo[3,4-b]pyridin-5-yl)-3-(trifluoromethyl)benzamide]",≤ 200,≤ 200,80 to 100,–
C=C(CN1CCC1)C(=O)Nc1cccc([C@H]2c3c(C)nn(-c4ccccc4)c3N(CC)C(=O)[C@@H]2NC(=O)c2cccc(C(F)(F)F)c2)c1 (racemic) [Compound I-137],≤ 200,–,80 to 100,≤ 200
C=C(CN1CCOCC1)C(=O)NCc1cccc([C@@H]2c3cnn(-c4ccccc4)c3N(CC)C(=O)[C@H]2NC(=O)c2ccnn2C(F)(F)F)c1 [Compound I-86],1000 to 3000,1000 to 3000,0 to 30,–
C=C(CN1CC2(COC2)C1)C(=O)Nc1cccc([C@@H]2c3c(C)nn(-c4ccccc4)c3N(CC)C(=O)[C@H]2NC(=O)c2cccc(C(F)(F)F)c2)c1 (racemic) [Compound I-64],≤ 200,–,80 to 100,≤ 200
